Results as given in patent US20150175655A1 (priority 2012, published 2015).

Each molecule was assayed against T1, NS3 genotype 3a protease (UniProt Q81258) (assay: Ki determination, NS3 protease genotype 3a (fluorogenic depsipeptide substrate)). Conditions: 200 pM enzyme, 20 μM NS4A peptide, 2 μM substrate, read-out: Ki 3A.
T1 construct: Purified NS3 protease domain (amino acids 1-181) of the genotype 1b and 3a virus were generated as above; fused on or other part: N-terminal hexahistidine tag and rTEV protease cleavage site (vector p28-N6H-Tev-NS3(181)3)
T1 sequence (Q81258 1033-1663): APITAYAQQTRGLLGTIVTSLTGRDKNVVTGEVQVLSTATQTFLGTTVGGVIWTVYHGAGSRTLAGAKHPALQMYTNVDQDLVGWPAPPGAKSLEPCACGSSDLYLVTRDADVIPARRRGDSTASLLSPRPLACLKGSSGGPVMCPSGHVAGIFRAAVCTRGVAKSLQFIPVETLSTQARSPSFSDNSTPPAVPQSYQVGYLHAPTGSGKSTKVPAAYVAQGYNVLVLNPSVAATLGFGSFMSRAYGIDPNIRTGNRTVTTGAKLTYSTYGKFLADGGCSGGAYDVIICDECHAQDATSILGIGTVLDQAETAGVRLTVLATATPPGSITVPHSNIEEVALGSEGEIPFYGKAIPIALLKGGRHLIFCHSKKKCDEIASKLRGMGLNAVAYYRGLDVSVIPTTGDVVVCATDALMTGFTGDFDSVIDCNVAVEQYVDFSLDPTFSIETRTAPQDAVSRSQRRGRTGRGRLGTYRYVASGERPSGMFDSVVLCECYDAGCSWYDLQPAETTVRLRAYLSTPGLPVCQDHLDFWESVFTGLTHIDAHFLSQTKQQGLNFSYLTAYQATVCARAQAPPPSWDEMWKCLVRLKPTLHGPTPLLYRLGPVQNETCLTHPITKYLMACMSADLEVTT
Type: biochemical, hepatitis C virus
In short: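 Refolded His-tagged NS3 protease domain (aa 1-181, genotype 3a) at 200 pM with 20 μM NS4A peptide was pre-incubated 1 h at RT with inhibitor (100 nM–5 pM, 3-fold), then 2 μM FRET depsipeptide substrate was added in HEPES/40% glycerol/10% DMSO buffer. Steady-state rates over 90-120 min (ex 340/em 490 nm) versus inhibitor concentration gave Ki.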
`COc1ccc2nc3c(nc2c1)O[C@H]1CN(C(=O)[C@H](C(C)(C)C)NC(=O)O[C@@]2(C)C[C@@H]2CCCCC3)[C@H](C(=O)N[C@]2(C(=O)NS(=O)(=O)C3(C)CC3)C[C@H]2C(F)F)[C@@H]1C` [Example 45, (1aS,5S,8S,9S,10R,22aS)-5-tert-butyl-N-[(1R,2R)-2-(difluoromethyl)-1-{[(1-methylcyclopropyl)sulfonyl]carbamoyl}cyclopropyl]-14-methoxy-1a,9-dimethyl-3,6-dioxo-1,1a,3,4,5,6,9,10,18,19,20,21,22,22a-tetradecahydro-8H-7,10-methanocyclopropa[18,19][1,10,3,6]dioxadiazacyclononadecino[11,12-b]quinoxaline-8-carboxamide] gave a Ki of 0.48 nM.
`CC[C@@H]1[C@@H]2CN(C(=O)[C@H](C(C)(C)C)NC(=O)O[C@@H]3C[C@H]3CCCCC(F)(F)c3nc4ccc(OC)cc4nc3O2)[C@@H]1C(=O)N[C@]1(C(=O)NS(=O)(=O)C2(C)CC2)C[C@H]1CC(F)F` [Example 35, (1aR,5S,8S,9S,10R,22aR)-5-tert-butyl-N-[(1R,2S)-2-(2,2-difluoroethyl)-1-{[(1-methylcyclopropyl)sulfonyl]carbamoyl}cyclopropyl]-9-ethyl-18,18-difluoro-14-methoxy-3,6-dioxo-1,1a,3,4,5,6,9,10,18,19,20,21,22,22a-tetradecahydro-8H-7,10-methanocyclopropa[18,19][1,10,3,6]dioxadiazacyclononadecino[11,12-b]quinoxaline-8-carboxamide] was tested, and the Ki was 0.23 nM.
For `CC[C@@H]1[C@@H]2CN(C(=O)[C@H](C(C)(C)C)NC(=O)O[C@@H]3C[C@H]3CCCCC(F)c3nc4ccc(OC)cc4nc3O2)[C@@H]1C(=O)N[C@]1(C(=O)NS(=O)(=O)C2(C)CC2)C[C@H]1C(F)F` (stereo partly drawn) [Example 90, (1aR,5S,8S,9S,10R,22aR)-5-tert-butyl-N-[(1R,2R)-2-(difluoromethyl)-1-{[(1-methylcyclopropyl)sulfonyl]carbamoyl}cyclopropyl]-9-ethyl-18-fluoro-14-methoxy-3,6-dioxo-1,1a,3,4,5,6,9,10,18,19,20,21,22,22a-tetradecahydro-8H-7,10-methanocyclopropa[18,19][1,10,3,6]dioxadiazacyclononadecino[11,12-b]quinoxaline-8-carboxamide], the Ki was 0.13 nM.
Molecule `CC[C@@H]1[C@@H]2CN(C(=O)[C@H](C(C)(C)C)NC(=O)O[C@@H]3C[C@H]3CCCCC(F)(F)c3nc4ccc(OC(F)F)cc4nc3O2)[C@@H]1C(=O)N[C@]1(C(=O)NS(=O)(=O)C2(C)CC2)C[C@H]1C(F)F` [Example 85, (1aR,5S,8S,9S,10R,22aR)-5-tert-butyl-14-(difluoromethoxy)-N-[(1R,2R)-2-(difluoromethyl)-1-{[(1-methylcyclopropyl)sulfonyl]carbamoyl}cyclopropyl]-9-ethyl-18,18-difluoro-3,6-dioxo-1,1a,3,4,5,6,9,10,18,19,20,21,22,22a-tetradecahydro-8H-7,10-methanocyclopropa[18,19][1,10,3,6]dioxadiazacyclononadecino[11,12-b]quinoxaline-8-carboxamide] has a Ki of 0.03 nM.
With `CC[C@@H]1[C@@H]2CN(C(=O)[C@H](C(C)(C)C)NC(=O)O[C@@H]3C[C@H]3CCCCCc3nc4ccc(OC)cc4nc3O2)[C@@H]1C(=O)N[C@]1(C(=O)NS(=O)(=O)C2(C)CC2)C[C@H]1CC` [Example 4, (1aR,5S,8S,9S,10R,22aR)-5-tert-butyl-9-ethyl-N-[(1R,2R)-2-ethyl-1-{[(1-methylcyclopropyl)sulfonyl]carbamoyl}cyclopropyl]-14-methoxy-3,6-dioxo-1,1a,3,4,5,6,9,10,18,19,20,21,22,22a-tetradecahydro-8H-7,10-methanocyclopropa[18,19][1,10,3,6]dioxadiazacyclononadecino[11,12-b]quinoxaline-8-carboxamide] the Ki was 0.56 nM.

Same assay, conditions: read-out: Ki 3A, 200 pM enzyme, 20 μM NS4A peptide, 2 μM substrate
Work on `CC[C@@H]1C[C@]1(NC(=O)[C@@H]1[C@H](C)[C@@H]2CN1C(=O)[C@H](C(C)(C)C)NC(=O)O[C@@H]1C[C@H]1CCCCCc1nc3ccc(OC)cc3nc1O2)C(=O)NS(=O)(=O)C1CC1` [Example 20, (1aR,5S,8S,9S,10R,22aR)-5-tert-butyl-N-{(1R,2R)-1-[(cyclopropylsulfonyl)carbamoyl]-2-ethylcyclopropyl}-14-methoxy-9-methyl-3,6-dioxo-1,1a,3,4,5,6,9,10,18,19,20,21,22,22a-tetradecahydro-8H-7,10-methanocyclopropa[18,19][1,10,3,6]dioxadiazacyclononadecino[11,12-b]quinoxaline-8-carboxamide] yielded a Ki of 0.53 nM.
Molecule `CC[C@@H]1[C@@H]2CN(C(=O)[C@H](C3CCCC3)NC(=O)O[C@@H]3C[C@H]3CCCCCc3nc4ccc(OC)cc4nc3O2)[C@@H]1C(=O)N[C@]1(C(=O)NS(=O)(=O)C2CC2)C[C@H]1C(F)F` [Example 15, (1aR,5S,8S,9S,10R,22aR)-5-cyclopentyl-N-[(1R,2R)-1-[(cyclopropylsulfonyl)carbamoyl]-2-(difluoromethyl)cyclopropyl]-9-ethyl-14-methoxy-3,6-dioxo-1,1a,3,4,5,6,9,10,18,19,20,21,22,22a-tetradecahydro-8H-7,10-methanocyclopropa[18,19][1,10,3,6]dioxadiazacyclononadecino[11,12-b]quinoxaline-8-carboxamide] has a Ki of 0.3 nM.
Work on `COc1ccc2nc3c(nc2c1)O[C@H]1CN(C(=O)[C@H](C(C)(C)C)NC(=O)O[C@@H]2C[C@@H]4C[C@@H]4[C@H]2CCCCC3)[C@H](C(=O)N[C@]2(C(=O)NS(=O)(=O)C3CC3)C[C@H]2CC(F)F)[C@@H]1C` [Example 57, (1aS,2aR,6S,9S,10S,11R,23aR,23bS)-6-tert-butyl-N-[(1R,2S)-1-[(cyclopropylsulfonyl)carbamoyl]-2-(2,2-difluoroethyl)cyclopropyl]-15-methoxy-10-methyl-4,7-dioxo-1a,2,2a,4,5,6,7,10,11,19,20,21,22,23,23a,23b-hexadecahydro-1H,9H-8,11-methanocyclopropa[4′,5′]cyclopenta[1′,2′:18,19][1,10,3,6]dioxadiazacyclononade cino[11,12-b]quinoxaline-9-carboxamide] yielded a Ki of 0.28 nM.
